# Read-outs that look alike come from different tables or passages of the source.
# Tests used:
# [1] = test system: E. coli ATCC 11229
# Procedure: (§1) Escherichia coli ATCC 11229 (Culti-loops, Remel Europe, Dartford, Kent, UK) and Pseudomonas aeruginosa ATCC 15442 (Cuti-loops, Remel Europe, Dartford, Kent, UK) were selected as model Gram-negative organisms for the challenge testing of the antimicrobial coatings. Each bacterial strain was streaked for isolated colonies on Tryptic Soy Agar (TSA) plates (Difco, Becton Dickinson, Sparks, Md., U.S.A.) and incubated at 37° C. for 12 to 18 hours. Broth cultures were prepared by first picking 1-2 isolated colonies from TSA plates and inoculating 5 mL Tryptic Soy Broth (TSB; Difco, Becton Dickinson, Sparks, Md., U.S.A.) in a 16 mm test tube. This culture was grown in a shaking water bath at 150 RPM for 8 hours at 37° C. After the eight hours, 125 μL of this culture was added to 50 mL of TSB in a side-arm Klett flask and grown for approximately 8 hours in shaking water bath (150 RPM) at 37° C. The bacterial broths were grown to an A590 of 1.2-1.5, which correlated to approximately 10^9 CFU (colony forming units)/mL. 25 mL of this broth were transferred to a sterile 30 mL Oakridge tube and centrifuged at 12,000×g for 10 minutes at 4° C. (Sorval SS34 rotor) to pelletize the bacteria. The bacterial pellet was washed once and resuspended in 25 mL of phosphate buffer solution (PBS; BBL, FTA Hemaglutination Buffer, Becton Dickinson, Sparks, Md., U.S.A.). The suspension was diluted with PBS to achieve the target range of 10^5-10^6 CFU/mL and used to inoculate the slides containing antibacterial coatings.
# The glass slides are then washed with acetone and water.
# (§2) The 10% substitution on this weight basis corresponds to substitution of one tenth of the total surfactant weight or to 3% of the total composition weight.
# Bacterial cultures as prepared and described in Example 12 are applied to the surfactant polymer coated slides as prepared and described in Example 26. All inoculations are performed in a laminar flow hood. Sterilized slides are placed into a sterile Petri dish. Then 0.5 mL of the prepared bacterial suspensions is pipetted directly onto the slide, which spreads across the surface of the coating but remains on top of the slide.
# The surviving bacteria from the exposures described in Example 27 are determined as follows: At each time point, 25 mL of sterile PBS is pipetted into the Petri dish completely submerging the slide, and a sterile plastic inoculating loop is used to release any viable bacteria remaining on the surface of the coating. Samples are plated onto TSA plates, and incubated at 37° C. for at least 24 h. Plates containing between 30 and 300 isolated colonies are counted.
# [2] = test system: P. aeruginosa ATCC 15442; conditions: for CFU/mL of E. coli at 24 hours / CFU/mL of E. coli at 12 hours: exposed to P. aeruginosa, polyurethane, microscope slides
# Procedure: as §1, §2
# The second set of coatings was made on microscope slides and challenged with E. coli ATCC 11229 and P. aeruginosa ATCC 15442. In these coatings, the gradient levels of incorporated silver were: 0%, 0.02%, 0.05%, 0.1%, 0.2%, 0.5%, 1.0% and 2.0% of the 30% NaAOT control amount. […] These gradients were tested at three inoculation time points, 0 hours, 12 hours, and 24 hours, with the 0% silver and 0 hours slides as controls.
# The bacterial cultures were prepared as described in Example 12. Once the slides were inoculated, those assigned to incubate for 12 hours or 24 hours were placed in a humidified chamber by placing the Petri dishes containing the slides on test tubes that had been taped to the bottom of a 9″×13″ Pyrex dish. These test tubes held the Petri dishes just above the bottom of the dish, into which about 500 mL of sterile water was added. The Pyrex dish was also sterilized via UV irradiation (at least 4 minutes of exposure) prior to each challenge to protect against contamination. The dish was then covered with plastic wrap and tin foil and incubated at room temperature (20° C. to 25° C.).
# At each time point (0 hours, 12 hours, and 24 hours), 25 mL of sterile PBS was pipetted into the Petri dish completely submerging the glass slide coated with the antimicrobial polymer.
# [3] = 0.061% weight w/w Ag in coating (first column 0.113), polyurethane, microscope slides
# [4] = 0.122% weight w/w Ag in coating (first column 0.226), polyurethane, microscope slides
# [5] = 24 hour exposure, polyurethane coated lantern slides
# [6] = […] weight w/w Ag in coating (first column 0.0574), polyurethane, microscope slides
# [7] = 0.061% weight w/w Ag in coating (first column 0.113)
# [8] = 0.122% weight w/w Ag in coating (first column 0.226)
# [9] = […] weight w/w Ag in coating (first column 0.0574)
smiles,measurement,setting,value
CCCCC(CC)COC(=O)CC(C(=O)OCC(CC)CCCC)S(=O)(=O)[O-].[Ag+] (centres unmarked) [AgAOT],CFU/mL of E. coli at 12 hours,[1]; [3],"0, 0, 0 CFU/mL"
same,CFU/mL of E. coli at 24 hours,[1]; [3],"0, 0, 0 CFU/mL"
same,CFU/mL of E. coli at 12 hours,[1]; [4],"0, 0, 0 CFU/mL"
same,CFU/mL of E. coli at 24 hours,[1]; [4],"0, 0, 0 CFU/mL"
same,CFU/mL of E. coli at 24 hours,"[1]; 0.5% substituted for sodium salt in coating ([…] weight silver), polyurethane coated lantern slides",0; 0 CFU/mL
same,CFU/mL of E. coli at 24 hours,"[1]; 1.0% substituted for sodium salt in coating (0.061% weight silver), polyurethane coated lantern slides",0; 0 CFU/mL
same,CFU/mL of E. coli at 24 hours,"[1]; 3.0% substituted for sodium salt in coating ([…] weight silver), polyurethane coated lantern slides",0; 0 CFU/mL
same,CFU/mL of E. coli at 24 hours,"[1]; 10.0% substituted for sodium salt in coating (0.61% weight silver), polyurethane coated lantern slides",0; 0 CFU/mL
same,Overall silver level effective as bactericide,[1]; 12 hours of exposure,0.06 % weight silver relative to coating weight
same,Ag+ level resulting in complete killing of the E. coli,[1]; [5],≥ 0.031 % Ag+ relative to coating weig
same,Level of substitution resulting in complete killing of the E. coli,[1]; [5],≥ 0.5 % weight relative to the 30% N
same,Overall silver level effective as bactericide,[1]; 24 hours of exposure,0.006 % weight silver relative to coating weight
same,CFU/mL of E. coli at 24 hours,"[1]; […] weight w/w Ag in coating (first column 0.0226), polyurethane, microscope slides","0, 0, 0 CFU/mL"
same,CFU/mL of E. coli at 12 hours,[1]; [6],"0, 0, 0 CFU/mL"
same,CFU/mL of E. coli at 24 hours,[1]; [6],"0, 0, 0 CFU/mL"
same,Overall silver level effective as bactericide,[2]; 12 hours of exposure,0.06 % weight silver relative to coating weight
same,Smallest level examined that appears effective at killing the P. aeruginosa,[2]; 24 h exposure,0.0012 % weight Ag relative to overall coating weight
same,Overall silver level effective as bactericide,[2]; 24 hours of exposure,0.006 % weight silver relative to coating weight
same,CFU/mL of E. coli at 24 hours,[2]; 0.0061% weight w/w Ag in coating (first column 0.0113),"0, 0, 0 CFU/mL"
same,CFU/mL of E. coli at 12 hours,[2]; [7],"0, 0, 0 CFU/mL"
same,CFU/mL of E. coli at 24 hours,[2]; [7],"0, 0, 0 CFU/mL"
same,CFU/mL of E. coli at 12 hours,[2]; [8],"0, 0, 0 CFU/mL"
same,CFU/mL of E. coli at 24 hours,[2]; [8],"0, 0, 0 CFU/mL"
same,CFU/mL of E. coli at 24 hours,[2]; […] weight w/w Ag in coating (first column 0.00230),"0, 0, 0 CFU/mL"
same,CFU/mL of E. coli at 12 hours,[2]; [9],"0, 0, 0 CFU/mL"
same,CFU/mL of E. coli at 24 hours,[2]; [9],"0, 0, 0 CFU/mL"
